A short description of series [1]: Inhibition of Clostridium perfringens beta-glucuronidase.
A short description of series [2]: Inhibition of Staphylococcus aureus beta-glucuronidase.
The nature of series [3]: Inhibition of bacterial beta-glucuronidase. Also on record: species or system Bacteria.
Series [4] can be described thus: Inhibition of Escherichia coli K-12 beta-glucuronidase using PNPG as substrate preincubated for 5 mins followed by substrate addition measured after 30 mins.
In series [5] the target is T1, Beta-glucuronidase (Mus musculus) (UniProt P12265).
T1 sequence (whole entry): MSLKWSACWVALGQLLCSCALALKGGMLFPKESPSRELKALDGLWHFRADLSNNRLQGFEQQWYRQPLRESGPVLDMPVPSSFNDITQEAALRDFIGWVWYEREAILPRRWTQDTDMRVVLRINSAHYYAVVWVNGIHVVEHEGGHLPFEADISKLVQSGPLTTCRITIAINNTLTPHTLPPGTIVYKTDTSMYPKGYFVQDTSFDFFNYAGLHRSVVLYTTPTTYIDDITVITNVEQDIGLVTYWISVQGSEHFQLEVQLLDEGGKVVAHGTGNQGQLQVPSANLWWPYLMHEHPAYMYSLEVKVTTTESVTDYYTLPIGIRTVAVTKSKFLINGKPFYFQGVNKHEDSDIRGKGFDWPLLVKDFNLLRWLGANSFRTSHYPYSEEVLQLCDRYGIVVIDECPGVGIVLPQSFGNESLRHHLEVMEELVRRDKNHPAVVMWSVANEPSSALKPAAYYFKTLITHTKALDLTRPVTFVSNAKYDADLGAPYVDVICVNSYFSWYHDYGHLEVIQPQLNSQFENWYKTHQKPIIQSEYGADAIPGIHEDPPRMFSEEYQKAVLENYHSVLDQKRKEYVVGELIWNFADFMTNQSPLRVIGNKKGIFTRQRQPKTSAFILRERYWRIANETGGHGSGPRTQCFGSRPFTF
Kind of series: In-vivo inhibition of ICR mouse beta-glucuronidase at 20 mg/kg, sc after 10 weeks relative to DMH alone. The series is classed as functional, organism-based.

For series [6], the target named is T1, Beta-glucuronidase (Mus musculus). Kind of series: In-vivo inhibition of ICR mouse beta-glucuronidase at 60 mg/kg, sc after 10 weeks relative to DMH alone. The series is classed as functional, organism-based.
Series [7] has as its target T2, Beta-glucuronidase (Escherichia coli (strain K12), UniProt P05804). Kind of series: Inhibition of Escherichia coli beta-glucuronidase using p-nitrophenyl-beta-D-glucuronide as substrate.
Series [8] has as its target T2, Beta-glucuronidase. Kind of series: Inhibition of Escherichia coli beta-glucuronidase.
Series [9] deals with Beta-glucuronidase (Escherichia coli (strain K12)) (UniProt P05804). Kind of series: Inhibition of Escherichia coli beta-glucuronidase at 1 mM relative to control.
Chain of Beta-glucuronidase (Escherichia coli (strain K12)) (P05804 whole entry, looked up): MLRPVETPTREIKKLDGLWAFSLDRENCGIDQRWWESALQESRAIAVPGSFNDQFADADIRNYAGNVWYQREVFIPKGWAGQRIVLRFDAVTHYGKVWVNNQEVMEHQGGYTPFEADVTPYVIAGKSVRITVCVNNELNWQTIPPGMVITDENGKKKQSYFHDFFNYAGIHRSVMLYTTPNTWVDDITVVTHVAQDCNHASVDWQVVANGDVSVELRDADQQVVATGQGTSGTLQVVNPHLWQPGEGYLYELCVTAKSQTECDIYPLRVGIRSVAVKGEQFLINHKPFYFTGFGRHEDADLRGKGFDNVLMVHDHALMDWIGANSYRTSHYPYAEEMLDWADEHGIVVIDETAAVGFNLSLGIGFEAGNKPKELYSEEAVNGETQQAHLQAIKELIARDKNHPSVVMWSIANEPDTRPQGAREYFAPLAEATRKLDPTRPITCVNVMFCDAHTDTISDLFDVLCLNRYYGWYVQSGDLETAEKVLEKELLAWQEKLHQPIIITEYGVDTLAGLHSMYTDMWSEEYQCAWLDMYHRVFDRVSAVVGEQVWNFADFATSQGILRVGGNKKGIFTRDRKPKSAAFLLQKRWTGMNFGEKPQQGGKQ
In series [10] the target is T3, Beta-glucuronidase (Homo sapiens) (UniProt P08236).
T3 sequence (whole entry): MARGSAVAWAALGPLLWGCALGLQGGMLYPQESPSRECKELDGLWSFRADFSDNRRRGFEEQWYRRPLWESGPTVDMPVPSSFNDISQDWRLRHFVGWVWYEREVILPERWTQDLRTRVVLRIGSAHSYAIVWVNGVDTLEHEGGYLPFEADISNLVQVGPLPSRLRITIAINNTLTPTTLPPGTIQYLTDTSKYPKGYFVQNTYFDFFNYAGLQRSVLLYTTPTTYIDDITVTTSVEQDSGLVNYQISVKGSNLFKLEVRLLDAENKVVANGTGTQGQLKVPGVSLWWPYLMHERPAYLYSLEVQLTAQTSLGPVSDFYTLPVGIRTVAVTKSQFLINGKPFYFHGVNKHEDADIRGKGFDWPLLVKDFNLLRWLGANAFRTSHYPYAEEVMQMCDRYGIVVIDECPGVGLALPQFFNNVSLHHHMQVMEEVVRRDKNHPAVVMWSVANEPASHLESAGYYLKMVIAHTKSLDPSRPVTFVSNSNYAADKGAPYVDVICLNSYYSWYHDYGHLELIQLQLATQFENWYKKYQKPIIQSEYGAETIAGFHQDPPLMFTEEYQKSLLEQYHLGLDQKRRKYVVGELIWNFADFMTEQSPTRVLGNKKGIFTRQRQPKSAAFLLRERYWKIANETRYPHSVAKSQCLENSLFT
Kind of series: Inhibition of beta-glucuronidase (unknown origin) at 1 mM relative to control.

Series [11] has as its target T3, Beta-glucuronidase (Homo sapiens). The following applies: 10 mg/ml.
The target of series [12] is T1, Beta-glucuronidase (Mus musculus). The series is described as follows: In vivo inhibition of beta-glucuronidase in OF1 mouse at 10 mg/kg, po after 8 days relative to control. The format is functional, organism-based.
The nature of series [13]: Inhibition of bovine liver beta-glucuronidase using p-nitrophenyl-beta-d-glucuronide as substrate after 30 mins by spectrophotometric analysis. Also on record: species or system Bos taurus.
Series [14] in a line: Inhibition of bovine liver beta-glucuronidase using p-nitrophenyl-beta-D-glucuronide as substrate after 30 mins. On the set-up: species or system Bos taurus.
The nature of series [15]: Half life in BALB/CJ mouse at 10 ug administered as twice daily. The series is classed as ADME. The following applies: in vivo.
Series [16] has as its target T4, Beta-glucuronidase (Mus musculus, UniProt P12265).
T4 sequence (P12265 whole entry): T1 sequence (whole entry)
The series is described as follows: In-vivo inhibition of beta-glucuronidase in BALB/CJ mouse at 10 ug administered as twice daily. The format is functional.

Series [17] can be described thus: Selectivity index, ratio of IC50 for beta-glucuronidase (unknown origin) to IC50 for Escherichia coli beta-glucuronidase.
Series [18] can be described thus: Inhibition of bovine liver beta-glucuronidase using 4-nitrophenyl beta-D-glucuronopyranoside as substrate preincubated for 30 mins followed by substrate addition measured after 10 to 20 mins by e Lineweaver-Burk plot analysis. On the set-up: species or system Bos taurus.
Series [19] is described as follows: Inhibition of bovine liver beta-glucuronidase using 4-nitrophenyl b-D-glucuronopyranoside as substrate after 30 mins. On the set-up: species or system Bos taurus.
Series [20] deals with T5, Beta-glucuronidase (Homo sapiens, UniProt P08236).
T5 sequence (P08236 whole entry): T3 sequence (whole entry)
The series is described as follows: Inhibition of beta-glucuronidase (unknown origin) using p-nitrophenyl-beta-d-glucuronide as substrate after 30 mins.

Structures are written as SMILES.

T2 sequence (P05804 whole entry): as the sequence (P05804 whole entry, looked up) above

The term IC50 denotes the point on the concentration scale where inhibition reaches its midpoint. A higher IC50 goes with a need for much substance. As to `c1nc(N2CCNCC2)c2sc3nc(N4CCOCC4)ccc3c2n1`, the figures for the IC50 in series [1] and in [2] were 0.053 µM and 0.69 µM, respectively.

For `COc1ccc(-c2nc(O)c3ccccc3n2)cc1OC`, in series [3], the IC50 amounted to 1.9 µM.

Broadly, the inhibition is the drop in the measured response relative to a control, in per cent. Lower therefore signals little suppression. Regarding `O=c1cc(-c2ccc(O)c(O)c2)oc2cc(O)cc(O)c12` [LUTEOLIN], in series [4], the IC50 came out at 8.68 µM. In addition, the values for the inhibition in [5] and in [6] were 14.9% and 21.3%, respectively.

Compound `CC1(C)CCC2(C(=O)O)CC[C@]3(C)C(=CC[C@@H]4[C@@]5(C)[C@H](O)C[C@H](O)[C@@](C)(CO)[C@@H]5CC[C@]43C)[C@@H]2C1` (some centres undefined) returned an IC50 against Beta-glucuronidase [7] of 63 µM.

On Beta-glucuronidase [8], `CC(=O)N[C@H]1[C@@H](O)[C@H](O)[C@H](CO)N[C@@H]1Cc1ccccc1` yielded an IC50 of 90.7 µM. The inhibition in series [9] was 37.2%.

`CCOc1ccccc1-c1nc2ccccc2c(=O)[nH]1`: it took 1.9 µM to reach half-maximal inhibition in series [3] (IC50).

As to `O=C(O)c1ccccc1O`, the inhibition was 82% in series [10] and 92.9% in series [11].

The compound `C[C@]12C=CC(=O)C=C1CC[C@H]1[C@@H]3C[C@@H](O)[C@](O)(C(=O)CO)[C@@]3(C)C[C@H](O)[C@@]12F` came in with an inhibition in [12] of 94.1%.

In the case of `Oc1ccccc1-c1nc2cc(Cl)cc(Cl)c2[nH]1`, the IC50 in [13] and in series [14] was 4.48 µM throughout.

As for `CNc1nc2sc3c(N4CCNCC4)nnnc3c2c2c1CCCC2`, the IC50 in series [1] was determined as 0.18 µM; in series [2], 0.039 µM.

A word on the half-life: it is the time in which the quantity being followed falls by half. A higher half-life goes with slow decline. Turning to `CCOc1ccc(NC(=S)N(CCO)Cc2cc3cc(C)cc(C)c3[nH]c2=O)cc1`, the half-life in series [15] is < 1 h. This compound also showed a 50% inhibitory concentration (IC50) on Beta-glucuronidase [16] of 0.164 µM.

As to `COc1ccc(C[C@@H]2CCC[C@@H]3[C@H](O)[C@@H](O)[C@H](CO)N23)cc1`, in series [10], the inhibition is < 50%. The Ratio IC50 in series [17] came out at 7.

Usually Ki stands for the dissociation constant of the complex between target and ligand, obtained from inhibition or displacement. Turning to `O=C(O)[C@@H]1[C@@H](O)[C@H](O)[C@@H](O)c2nnnn21`, the Ki in series [18] is 0.025 µM. This compound also yielded an IC50 in [19] of 25 µM.

The compound `CC(=O)c1ccc(Nc2cc(C)nc3ccccc23)cc1` came in with an IC50 on Beta-glucuronidase [20] of 4 µM.

These data come from ChEMBL document CHEMBL4616590, “Therapeutic significance of β-glucuronidase activity and its inhibitors: A review” (Eur J Med Chem, 2020).
